# From PMC8317467 (FASEB journal : official publication of the Federation of …, 2020)
# Positions count from the first letter of the chain named. Entries after “also recorded” stand apart in the source; their conditions may differ.
# Tests used:
# [1] = target: T1, F439Y-ABCG2 (Homo sapiens, UniProt Q9UNQ0, F439Y); assay: Transport assay; type: cell-based; conditions: 0.5 μM of Hoechst 33342, ± 10 μM of Lapatinib, 120 min
# T1 sequence (Q9UNQ0 1-655 F439Y): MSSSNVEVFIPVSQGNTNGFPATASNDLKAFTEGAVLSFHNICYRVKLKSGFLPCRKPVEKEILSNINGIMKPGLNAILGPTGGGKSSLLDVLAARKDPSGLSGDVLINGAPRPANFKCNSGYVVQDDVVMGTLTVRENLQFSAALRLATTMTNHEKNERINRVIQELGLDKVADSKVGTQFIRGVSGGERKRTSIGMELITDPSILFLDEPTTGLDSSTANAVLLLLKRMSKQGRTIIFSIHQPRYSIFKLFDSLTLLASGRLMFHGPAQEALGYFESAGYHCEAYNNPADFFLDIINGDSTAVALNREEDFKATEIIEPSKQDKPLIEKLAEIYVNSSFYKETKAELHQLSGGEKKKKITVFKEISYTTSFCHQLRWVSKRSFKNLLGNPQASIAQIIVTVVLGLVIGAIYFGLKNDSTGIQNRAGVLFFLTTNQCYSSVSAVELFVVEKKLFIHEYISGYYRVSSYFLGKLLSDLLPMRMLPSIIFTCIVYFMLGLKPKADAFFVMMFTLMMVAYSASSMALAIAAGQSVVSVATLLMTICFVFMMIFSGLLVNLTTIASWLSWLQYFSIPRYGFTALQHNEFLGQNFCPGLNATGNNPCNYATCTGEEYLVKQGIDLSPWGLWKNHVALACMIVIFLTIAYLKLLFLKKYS
# [2] = target: T2, WT-ABCG2 (Homo sapiens, UniProt Q9UNQ0); assay: Membrane thermal shift, MEF membrane vesicles, WT-ABCG2; type: binding; conditions: 10 μM of ligand, 60 min at 37°C, heated 3 min at 65°C
# T2 sequence (Q9UNQ0 1-655): T1 sequence (Q9UNQ0 1-655 F439Y) with Y439F
# [3] = target: T3, F439W-ABCG2 (Homo sapiens, UniProt Q9UNQ0, F439W); assay: Transport assay; type: cell-based; conditions: 0.5 μM of Hoechst 33342, ± 10 μM of Lapatinib, 120 min
# T3 sequence (Q9UNQ0 1-655 F439W): T1 sequence (Q9UNQ0 1-655 F439Y) with Y439W
# [4] = target: T4, F439A-ABCG2 (Homo sapiens, UniProt Q9UNQ0, F439A); assay: Transport assay; type: cell-based; conditions: 0.5 μM substrate
# T4 sequence (Q9UNQ0 1-655 F439A): T1 sequence (Q9UNQ0 1-655 F439Y) with Y439A
# [5] = target: T3, F439W-ABCG2; assay: Membrane thermal shift, MEF membrane vesicles, F439W; type: binding; conditions: 10 μM of Hoechst 33342, 60 min at 37°C
# [6] = target: T1, F439Y-ABCG2; assay: Membrane thermal shift, MEF membrane vesicles, F439Y; type: binding; conditions: 10 μM of Hoechst 33342, 60 min at 37°C
# [7] = test system: N436A; conditions: ref 11 (Manolaridis et al); cited from earlier work
# [8] = test system: F439A; conditions: ref 11 (Manolaridis et al); cited from earlier work
compound,measurement,setting,value
CCOc1ccc(-c2nc3ccc(-c4nc5ccc(N6CCN(C)CC6)cc5[nH]4)cc3[nH]2)cc1 [Hoechst 33342],transport of substrate by F439Y-ABCG2,[1],transport activity similar to WT-ABCG2
same,thermal stabilization of WT-ABCG2 by ligand,[2],stabilized
same,transport of substrate by F439W-ABCG2,[3],transport activity similar to WT-ABCG2
same,transport of substrate by F439A-ABCG2,[4],incapable of transporting; also recorded: no net ABCG2 mediated transport
same,thermal stabilization of F439W-ABCG2 by ligand,[5],stabilized
same,thermal stabilization of F439Y-ABCG2 by ligand,[6],stabilized
C[C@]12CC[C@@H]3c4ccc(OS(=O)(=O)O)cc4CC[C@H]3[C@@H]1CCC2=O [estrone-3-sulfate],transport of substrate by N436A,[7],incapable
same,transport of substrate by F439A,[8],could not transport
